Measurements from publication PMC4712073 (Analytical and bioanalytical chemistry, 2015).
Where two headings read alike, the source gives them in different places.

Columns and labels:
SIRT5 [1] = molecular target: T1, SIRT5 (Homo sapiens, UniProt Q9NXA8); conditions: reported as SIRT5 inhibitor; cited from earlier work
T1 sequence (Q9NXA8 37-310): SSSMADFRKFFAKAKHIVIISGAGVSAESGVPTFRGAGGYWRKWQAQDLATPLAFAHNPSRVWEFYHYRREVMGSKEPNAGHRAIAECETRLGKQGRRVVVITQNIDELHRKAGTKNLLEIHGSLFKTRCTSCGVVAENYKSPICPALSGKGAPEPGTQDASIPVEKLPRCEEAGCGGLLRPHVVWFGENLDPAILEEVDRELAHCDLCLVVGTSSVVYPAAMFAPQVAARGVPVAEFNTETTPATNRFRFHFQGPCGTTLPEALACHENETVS

SIRT5 [2] = molecular target: T1, SIRT5; experiment: Peptide-based SIRT5 desuccinylation assay by droplet microchip electrophoresis; format: biochemical

For `N#C/C(=C\c1ccc(-c2cc(Cl)ccc2Cl)o1)C(=O)Nc1cccc2ncccc12` [AGK-2], the IC50 (SIRT5 [1]) is given as over 100 µM.

With `CCCCCCCCCCCCCCCc1cccc(O)c1C(=O)O` [anacardic acid] the “SIRT5 inhibition (in words)” value (SIRT5 [2]; pilot screening, chosen as positive control (10 µM)) was “potent inhibitor”.

For `CCCCCC[C@H]1C(=O)O[C@H](C)[C@H](NC(=O)c2cccc(NC=O)c2O)C(=O)O[C@@H](C)[C@@H]1OC(=O)CC(C)C` [antimycin A], the IC50 (SIRT5 [2]; Prestwick hits, dose-response analysis 0.1 to 100 µM) was “near the maximum tested dose”.
